Measured values: ChEMBL document CHEMBL1142165, “Influence on mitochondria and cytotoxicity of different antibiotics administered in high concentrations on primary human osteoblasts and cell lines” (Antimicrob Agents Chemother, 2007)
In brackets after ≈: the same amount, converted by molar mass. Activity calls are given as the source filed them. The calls are words filed in the database; no cut-off is given here.

Key:
Osteoblast [1] = assay: Increase in lactate production in primary human osteoblasts at 1 uM after 1 hr by ELISA; format: functional, cell-based
MG-63 [2] = assay: Increase in lactate production in MG63 cells at 1 uM after 1 hr by ELISA; format: functional, cell-based; details: Homo sapiens
[3] = Cytotoxicity against primary human osteoblasts at 400 ug/ml assessed as LDH release after 24 hrs; details: osteoblast, at 400 µg/mL
[4] = Cytotoxicity against primary human osteoblasts at 100 ug/ml assessed as LDH release after 24 hrs; format: cell-based; details: osteoblast
[5] = Cytotoxicity against primary human osteoblasts at 200 ug/ml assessed as LDH release after 24 hrs; format: cell-based; details: osteoblast
[6] = Antiproliferative effect against primary human osteoblasts assessed as BrdU incorporation into DNA after 48 hrs; format: functional, cell-based; details: Osteoblast
Osteoblast [7] = assay: Inhibition of metabolic activity in primary human osteoblasts assessed as MTT reduction after 48 hrs; format: functional, cell-based
MG-63 [8] = assay: Antiproliferative effect against MG63 cells assessed as BrdU incorporation into DNA after 48 hrs after 48 hrs; format: functional, cell-based; details: Homo sapiens, MG-63, 48 h
MG-63 [9] = assay: Inhibition of metabolic activity in MG63 cells assessed as MTT reduction after 48 hrs; format: functional, cell-based; details: Homo sapiens, MG-63, 48 h
HeLa [10] = assay: Antiproliferative effect against HeLa cells after 48 hrs; format: functional, cell-based; details: Homo sapiens
HeLa [11] = assay: Inhibition of metabolic activity in HeLa cells assessed as MTT reduction after 48 hrs; format: functional, cell-based; details: Homo sapiens
MG-63 [12] = assay: Increase in lactate production in MG63 cells at 400 ug/ml by ELISA relative to control; format: functional, Homo sapiens
Osteoblast [13] = assay: Antiproliferative effect against primary human osteoblasts assessed as BrdU incorporation into DNA at 10 ug/ml after 48 hrs; format: functional, cell-based
Osteoblast [14] = assay: Increase in lactate production in primary human osteoblasts at 25 to 50 ug/ml by ELISA; format: functional
Osteoblast [15] = assay: Inhibition of metabolic activity in primary human osteoblasts in presence of 10% FCS; format: functional
Osteoblast [16] = assay: Antiproliferative effect against primary human osteoblasts in presence of 10% FCS; format: functional, cell-based
Osteoblast [17] = assay: Increase in lactate production in primary human osteoblasts at 190 ug/ml by ELISA; format: functional
MG-63 [18] = assay: Decrease in lactate production in MG63 cells at 400 ug/ml by ELISA; format: functional, Homo sapiens; set-up: scale not given: the % may be the effect or the level left
HeLa [19] = assay: Decrease in lactate production in HeLa cells at 400 ug/ml by ELISA; format: functional, Homo sapiens; set-up: scale not given: the % may be the effect or the level left
Osteoblast [20] = assay: Increase in lactate production in primary human osteoblasts at 400 ug/ml by ELISA relative to control; format: functional
Osteoblast [21] = assay: Blocking of clindamycin-induced lactate production in primary human osteoblasts at 20 mM by ELISA; format: functional, cell-based
Osteoblast [22] = assay: Blocking of clindamycin-induced LDH release in primary human osteoblasts at 20mM by ELISA; format: functional, cell-based
MG-63 [23] = assay: Decrease in lactate production in MG63 cells by ELISA; format: functional, cell-based; details: Homo sapiens
HeLa [24] = assay: Decrease in lactate production in HeLa cells by ELISA; format: functional, cell-based; details: Homo sapiens

Molecule | Activity [3] [%] | IC20 [6] [µg/mL] | IC50 [6] [µg/mL] | IC20 (Osteoblast [7]) [µg/mL] | IC50 (Osteoblast [7]) [µg/mL] | IC20 (MG-63 [8]) [µg/mL] | IC50 (MG-63 [8]) [µg/mL] | IC20 (MG-63 [9]) [µg/mL] | IC50 (MG-63 [9]) [µg/mL] | IC20 (HeLa [10]) [µg/mL] | IC50 (HeLa [10]) [µg/mL] | IC20 (HeLa [11]) [µg/mL] | IC50 (HeLa [11]) [µg/mL] | also measured
C=C(C)[C@H]1Cc2c(ccc3c2O[C@@H]2COc4cc(OC)c(OC)cc4[C@@H]2C3=O)O1 | – | – | – | – | – | – | – | – | – | – | – | – | – | Activity (Osteoblast [1]): Active; Activity (MG-63 [2]): Active
CC[C@H]1OC(=O)[C@H](C)[C@@H](O[C@H]2C[C@@](C)(OC)[C@@H](O)[C@H](C)O2)[C@H](C)[C@@H](O[C@@H]2O[C@H](C)C[C@H](N(C)C)[C@H]2O)[C@](C)(O)C[C@@H](C)CN(C)[C@H](C)[C@@H](O)[C@]1(C)O [AZITHROMYCIN] | 40 | 20 (≈ 26.7 µM) | 25 (≈ 33.4 µM) | 80 (≈ 107 µM) | 160 (≈ 214 µM) | 30 (≈ 40.1 µM) | 190 (≈ 254 µM) | 70 (≈ 93.5 µM) | 180 (≈ 240 µM) | 110 (≈ 147 µM) | 240 (≈ 320 µM) | 50 (≈ 66.8 µM) | 160 (≈ 214 µM) | Activity [4]: 20%; Activity [5]: 40%; Activity (MG-63 [12]): 30%
COc1c(N2C[C@@H]3CCCN[C@@H]3C2)c(F)cc2c(=O)c(C(=O)O)cn(C3CC3)c12 [MOXIFLOXACIN] | 10 | 80 (≈ 199 µM) | 160 (≈ 399 µM) | 190 (≈ 473 µM) | > 400 | 110 (≈ 274 µM) | 230 (≈ 573 µM) | 30 (≈ 74.7 µM) | 170 (≈ 423 µM) | 90 (≈ 224 µM) | 320 (≈ 797 µM) | 40 (≈ 99.6 µM) | 110 (≈ 274 µM) | Activity (Osteoblast [13]): Active; Activity (Osteoblast [14]): 10%
CC[C@H]1OC(=O)[C@H](C)[C@@H](O[C@H]2C[C@@](C)(OC)[C@@H](O)[C@H](C)O2)[C@H](C)[C@@H](O[C@@H]2O[C@H](C)C[C@H](N(C)C)[C@H]2O)[C@](C)(O)C[C@@H](C)C(=O)[C@H](C)[C@@H](O)[C@]1(C)O [ERYTHROMYCIN] | 40 | 30 (≈ 40.9 µM) | 180 (≈ 245 µM) | 210 (≈ 286 µM) | > 400 | 130 (≈ 177 µM) | 300 (≈ 409 µM) | 180 (≈ 245 µM) | 310 (≈ 422 µM) | 210 (≈ 286 µM) | > 400 | 110 (≈ 150 µM) | 170 (≈ 232 µM) | IC20 (Osteoblast [15]): 11 µg/mL; Activity (MG-63 [12]): 60%; Activity (Osteoblast [16]): Active
CN(C)[C@@H]1C(O)=C(C(N)=O)C(=O)[C@@]2(O)C(O)=C3C(=O)c4c(O)cccc4[C@@](C)(O)[C@H]3C[C@@H]12 [TETRACYCLINE] | – | 60 (≈ 135 µM) | 180 (≈ 405 µM) | – | – | 60 (≈ 135 µM) | 180 (≈ 405 µM) | – | – | 200 (≈ 450 µM) | > 400 | – | – | Activity (Osteoblast [17]): 30%; Activity (MG-63 [18]): 50%; Activity (HeLa [19]): 50%
CC[C@H]1OC(=O)[C@H](C)[C@@H](O[C@H]2C[C@@](C)(OC)[C@@H](O)[C@H](C)O2)[C@H](C)[C@@H](O[C@@H]2O[C@H](C)C[C@H](N(C)C)[C@H]2O)[C@](C)(O)C[C@@H](C)/C(=N\OCOCCOC)[C@H](C)[C@@H](O)[C@]1(C)O [ROXITHROMYCIN] | 40 | 20 (≈ 23.9 µM) | 70 (≈ 83.6 µM) | 110 (≈ 131 µM) | 210 (≈ 251 µM) | 50 (≈ 59.7 µM) | 180 (≈ 215 µM) | 50 (≈ 59.7 µM) | 110 (≈ 131 µM) | 100 (≈ 119 µM) | 160 (≈ 191 µM) | 30 (≈ 35.8 µM) | 90 (≈ 108 µM) | Activity [4]: 20%; Activity [5]: 30%
CO[C@H]1/C=C/O[C@@]2(C)Oc3c(C)c(O)c4c(O)c(c(/C=N/N5CCN(C)CC5)c(O)c4c3C2=O)NC(=O)/C(C)=C\C=C\[C@H](C)[C@H](O)[C@@H](C)[C@@H](O)[C@@H](C)[C@H](OC(C)=O)[C@@H]1C [RIFAMPIN] | – | 30 (≈ 36.5 µM) | 130 (≈ 158 µM) | – | – | 120 (≈ 146 µM) | 240 (≈ 292 µM) | – | – | 180 (≈ 219 µM) | 270 (≈ 328 µM) | – | – | Activity (Osteoblast [20]): 40%
GENTAMICIN | – | – | – | – | – | – | – | – | – | – | – | – | – | Activity (Osteoblast [16]): inactive
O=C(O)c1cn(C2CC2)c2cc(N3CCNCC3)c(F)cc2c1=O [CIPROFLOXACIN] | – | 70 (≈ 211 µM) | 170 (≈ 513 µM) | 260 (≈ 785 µM) | > 400 | 80 (≈ 241 µM) | 160 (≈ 483 µM) | 60 (≈ 181 µM) | 150 (≈ 453 µM) | 100 (≈ 302 µM) | 290 (≈ 875 µM) | 70 (≈ 211 µM) | 120 (≈ 362 µM) | Activity (Osteoblast [13]): Active; Activity (Osteoblast [14]): 10%
Nc1ncnc2c1ncn2[C@@H]1O[C@H](CO)[C@@H](O)[C@H]1O | – | – | – | – | – | – | – | – | – | – | – | – | – | Activity (Osteoblast [21]): Active; Activity (Osteoblast [22]): Active
Cc1nnc(SCC2=C(C(=O)O)N3C(=O)[C@@H](NC(=O)Cn4cnnn4)[C@H]3SC2)s1 [CEFAZOLIN] | – | 380 (≈ 836 µM) | > 400 | > 400 | > 400 | 230 (≈ 506 µM) | > 400 | 400 (≈ 880 µM) | > 400 | 270 (≈ 594 µM) | > 400 | > 400 | > 400 | –
CCC[C@@H]1C[C@@H](C(=O)N[C@@H]([C@H]2O[C@H](SC)[C@H](O)[C@@H](O)[C@H]2O)[C@H](C)Cl)N(C)C1 [CLINDAMYCIN] | 10 | 40 (≈ 94.1 µM) | 150 (≈ 353 µM) | 340 (≈ 800 µM) | > 400 | 160 (≈ 376 µM) | 250 (≈ 588 µM) | 200 (≈ 471 µM) | > 400 | 230 (≈ 541 µM) | > 400 | 80 (≈ 188 µM) | 200 (≈ 471 µM) | IC20 (Osteoblast [15]): 20 µg/mL; Activity (MG-63 [23]): Active; Activity (HeLa [24]): Active; Activity (MG-63 [12]): 60%; Activity (Osteoblast [16]): Active
